Experimental data published in US7915292B2, “Antibacterial quinoline derivatives” (Janssen Pharmaceutica NV, priority 2005, dated 2011).
Converted amounts (≈) assume the structure as drawn.

Tests used:
ECO 25922 = experiment: Microtitre plate assay, IC90 determination, ECO 25922; format: cell-based, E. coli; details: 90% inhibitory concentration for bacterial growth, strain ECO 25922, 24 hours at 37° C.; for IC90: Escherichia coli, read-out: IC90 (μg/ml) ECO 25922
Experimental: (§1) Stocks (0.5 ml/tube) were stored at -70° C. until use. Bacteria titrations were performed in microtiter plates to detect the TCID50, in which the TCID50 represents the dilution that gives rise to bacterial growth in 50% of inoculated cultures. In general, an inoculum level of approximately 100 TCID50 was used for susceptibility testing. […] Serial five-fold dilutions (45 μl in 180 μl) were made directly in the microtiter plates from column 2 to reach column 11. Untreated control samples with (column 1) and without (column 12) inoculum were included in each microtiter plate. Depending on the bacteria type, approximately 10 to 60 CFU per well of bacteria inoculum (100 TCID50), in a volume of 100 μl in 2.8× Mueller-Hinton broth medium, was added to the rows […]. The same volume of broth medium without inoculum was added to column 12 in row A to H. The cultures were incubated at 37° C. for 24 hours under a normal atmosphere (incubator with open air valve and continuous ventilation). At the end of incubation, one day after inoculation, the bacterial growth was quantitated fluorometrically. Therefore resazurin (0.6 mg/ml) was added in a volume of 20 μl to all wells 3 hours after inoculation, and the plates were re-incubated overnight. A change in colour from blue to pink indicated the growth of bacteria. The fluorescence was read in a computer-controlled fluorometer (Cytofluor Biosearch) at an excitation wavelength of 530 nm and an emission wavelength of 590 nm. The % growth inhibition achieved by the compounds was calculated according to standard methods. The IC90 (expressed in μg/ml) was defined as the 90% inhibitory concentration for bacterial growth.

STA 25923 = experiment: Microtitre plate assay, IC90 determination, STA 25923; format: cell-based, S. aureus; details: Staphylococcus aureus; 90% inhibitory concentration for bacterial growth; strain STA 25923; 24 hours at 37° C.; read-out: IC90 (μg/ml) STA 25923
Experimental: as §1

M. Smegmatis ATCC607 = experiment: In-vitro anti-bacterial activity against strain M. smegmatis ATCC607 (Alamar Blue growth inhibition); format: cell-based; details: 48 hours incubation; for IC50: Mycolicibacterium smegmatis, read-out: M. smegmatis pIC50 (converted)
Experimental: Serial five-fold dilutions (45 μl in 180 μl) were made directly in the microtiter plates from column 2 to 11 using a customised robot system (Zymark Corp., Hopkinton, Mass.). Pipette tips were changed after every 3 dilutions to minimize pipetting errors with high hydrophobic compounds. Untreated control samples with (column 1) and without (column 12) inoculum were included in each microtiter plate. Approximately 250 CFU per well of bacteria inoculum, in a volume of 100 μl in 2.8× Mueller-Hinton broth medium, was added to the rows […]. The same volume of broth medium without inoculum was added to column 12 in row A to H. The cultures were incubated at 37° C. for 48 hours in a humidified 5% CO2 atmosphere (incubator with open air valve and continuous ventilation). At the end of incubation, two days after inoculation, the bacterial growth was quantitated fluorometrically. Therefore Alamar Blue (10×) was added to all wells in a volume of 20 μl and plates were incubated for another 2 hours at […] The fluorescence was read in a computer-controlled fluorometer (Cytofluor, Biosearch) at an excitation wavelength of 530 nm and an emission wavelength of 590 nm (gain 30). The percentage growth inhibition achieved by the compounds was calculated according to standard methods and expressed as pIC50 values.

EFA 29212 = experiment: Microtitre plate assay, IC90 determination, EFA 29212; format: cell-based, E. faecalis; details: Enterococcus faecalis; 90% inhibitory concentration for bacterial growth; strain EFA 29212; 24 hours at 37° C.; read-out: IC90 (μg/ml) EFA 29212
Experimental: as §1

LMO 49594 = experiment: Microtitre plate assay, IC90 determination, LMO 49594; format: cell-based, Listeria monocytogenes; details: Listeria monocytogenes; 90% inhibitory concentration for bacterial growth; strain LMO 49594; 24 hours at 37° C.; read-out: IC90 (μg/ml) LMO 49594
Experimental: as §1

SMU 33402 = experiment: Microtitre plate assay, IC90 determination, SMU 33402; format: cell-based, S. mutans; details: Streptococcus mutans; 90% inhibitory concentration for bacterial growth; strain SMU 33402; 24 hours at 37° C.; read-out: IC90 (μg/ml) SMU 33402
Experimental: as §1

SPN 6305 = experiment: Microtitre plate assay, IC90 determination, SPN 6305; format: cell-based, S. pneumoniae; details: 90% inhibitory concentration for bacterial growth, strain SPN 6305, 24 hours at 37° C.; for IC90: Streptococcus pneumoniae, read-out: IC90 (μg/ml) SPN 6305
Experimental: as §1

SPY 8668 = experiment: Microtitre plate assay, IC90 determination, SPY 8668; format: cell-based, S. pyogens; details: 90% inhibitory concentration for bacterial growth; strain SPY 8668; 24 hours at 37° C.; read-out: IC90 (μg/ml) SPY 8668
Experimental: as §1

STA 29213 = experiment: Microtitre plate assay, IC90 determination, STA 29213; format: cell-based, S. aureus; details: 90% inhibitory concentration for bacterial growth, strain STA 29213, 24 hours at 37° C.; for IC90: Staphylococcus aureus, read-out: IC90 (μg/ml) STA 29213
Experimental: as §1

STA RMETH = experiment: Microtitre plate assay, IC90 determination, STA RMETH; format: cell-based, S. aureus; details: Staphylococcus aureus; 90% inhibitory concentration for bacterial growth; strain STA RMETH; 24 hours at 37° C.; read-out: IC90 (μg/ml) STA RMETH
Experimental: as §1

[1] = system: Mycobacterium tuberculosis (strain H37RV); experiment: In-vitro method for testing compounds against M. tuberculosis (resazurin growth inhibition); format: cell-based; details: Mycobacterium tuberculosis, 168 h, 7 days incubation, read-out: M. tuberculosis pIC50 (converted)
EFA 14506 = experiment: Microtitre plate assay, IC90 determination, EFA 14506; format: cell-based, E. faecalis; details: Enterococcus faecalis; 90% inhibitory concentration for bacterial growth; strain EFA 14506; 24 hours at 37° C.; read-out: IC90 (μg/ml) EFA 14506
Experimental: as §1

PAE 27853 = experiment: Microtitre plate assay, IC90 determination, PAE 27853; format: cell-based, Pseudomonas aeruginosa; details: Pseudomonas aeruginosa; 90% inhibitory concentration for bacterial growth; strain PAE 27853; 24 hours at 37° C.; read-out: IC90 (μg/ml) PAE 27853
Experimental: as §1

In the case of CCOC(=O)CN(Cc1ccccc1)C(c1ccccc1)c1cc2cc(Br)ccc2nc1OC (stereo not shown) [Compound 137], the IC90 (ECO 25922) is reported as 13 µg/mL (≈ 25 µM) and the IC90 (STA 25923) is reported as 11.6 µg/mL (≈ 22.3 µM).

In the case of COc1cccc(CN(CCN(C)C)C(c2ccccc2)c2cc3cc(Br)ccc3nc2OC)c1 (stereo not shown) [Compound 20], the IC50 (M. Smegmatis ATCC607) is reported as 1.26 µM, the IC90 (ECO 25922) is reported as 15.7 µg/mL (≈ 29.4 µM) and the IC90 (EFA 29212) is reported as 15.7 µg/mL (≈ 29.4 µM). For the same compound, the IC90 (LMO 49594) was 15.7 µg/mL (≈ 29.4 µM), the IC90 (SMU 33402) was 12.5 µg/mL (≈ 23.4 µM) and the IC90 (SPN 6305) was 15.7 µg/mL (≈ 29.4 µM). The IC90 (SPY 8668) was 12.5 µg/mL (≈ 23.4 µM), the IC90 (STA 29213) was 14 µg/mL (≈ 26.2 µM) and the IC90 (STA RMETH) was 14 µg/mL (≈ 26.2 µM).

For COc1nc2ccc(C#N)cc2cc1C(c1ccccc1)N(CC(=O)N1CCN(C)CC1)Cc1ccccc1 (stereo not shown) [Compound 123], the “M. smegmatis pIC50” value (M. Smegmatis ATCC607) was 5.2, the “IC90 (μg/ml) ECO 25922” value (ECO 25922) was 13.1 µg/mL (≈ 25.2 µM) and the “IC90 (μg/ml) SPN 6305” value (SPN 6305) was 13.1 µg/mL (≈ 25.2 µM).

In the case of CCN(CC)C(=O)CN(C)C(c1ccccc1)c1cc2cc(Br)ccc2nc1OC (stereo not shown) [Compound 11], the “M. smegmatis pIC50” value (M. Smegmatis ATCC607) is reported as 5.1 and the “IC90 (μg/ml) STA 29213” value (STA 29213) is reported as 11.8 µg/mL (≈ 25.1 µM).

For COc1nc2ccc(Br)cc2cc1C(c1ccccc1)N(CC(=O)N1CCOCC1)Cc1ccccc1 (stereo not shown) [Compound 112], the “M. smegmatis pIC50” value (M. Smegmatis ATCC607) was 5.8 and the “IC90 (μg/ml) STA 29213” value (STA 29213) was 14.1 µg/mL (≈ 25.2 µM).

CN(C)CCN(Cc1ccccc1)C(c1ccccc1)c1cc2cc(Br)ccc2nc1-c1ccccc1 (stereo not shown) [Compound 51] gave an IC50 [1] of 7.94 µM, an IC50 (M. Smegmatis ATCC607) of 1 µM and an IC90 (ECO 25922) of 13.8 µg/mL (≈ 25.1 µM). It also gave an IC90 (EFA 14506) of 11 µg/mL (≈ 20 µM), an IC90 (EFA 29212) of 13.8 µg/mL (≈ 25.1 µM) and an IC90 (LMO 49594) of 13.8 µg/mL (≈ 25.1 µM). For the same compound, the IC90 (PAE 27853) was 11 µg/mL (≈ 20 µM), the IC90 (SMU 33402) was 6.9 µg/mL (≈ 12.5 µM) and the IC90 (SPN 6305) was 2.8 µg/mL (≈ 5.09 µM). It also gave an IC90 (SPY 8668) of 2.8 µg/mL (≈ 5.09 µM), an IC90 (STA 25923) of 12.3 µg/mL (≈ 22.3 µM) and an IC90 (STA 29213) of 11 µg/mL (≈ 20 µM). For the same compound, the IC90 (STA RMETH) was 12.3 µg/mL (≈ 22.3 µM).

In the case of Cc1ccc2nc(-c3ccccc3)c(C(c3ccccc3)N(CC(=O)N3CCSCC3)Cc3ccccc3)cc2c1 (stereo not shown) [Compound 70], the IC50 [1] is reported as 3.16 µM, the IC50 (M. Smegmatis ATCC607) is reported as 0.251 µM and the IC90 (ECO 25922) is reported as 14 µg/mL (≈ 25.1 µM). For the same compound, the IC90 (EFA 29212) was 14 µg/mL (≈ 25.1 µM), the IC90 (LMO 49594) was 14 µg/mL (≈ 25.1 µM) and the melting point was 144 °C.
